Measurements: patent US20090325964A1, “Piperazine Metabotropic Glutamate Receptor 5 (MGLUR5) Negative Allosteric Modulators For Anxiety/Depression” (Wyeth, priority 2008, published 2009)
pIC50, pKi: −log10 of the molar value. Like-named read-outs stand apart in the source and are kept apart here. Each block holds one molecule with its values, some of them ahead of it.

Target: T1, rat mGluR5 receptor (Rattus norvegicus, UniProt P31424)
T1 construct: expressed in transfected cells; host or cells: HEK-293
T1 sequence (P31424 21-1203): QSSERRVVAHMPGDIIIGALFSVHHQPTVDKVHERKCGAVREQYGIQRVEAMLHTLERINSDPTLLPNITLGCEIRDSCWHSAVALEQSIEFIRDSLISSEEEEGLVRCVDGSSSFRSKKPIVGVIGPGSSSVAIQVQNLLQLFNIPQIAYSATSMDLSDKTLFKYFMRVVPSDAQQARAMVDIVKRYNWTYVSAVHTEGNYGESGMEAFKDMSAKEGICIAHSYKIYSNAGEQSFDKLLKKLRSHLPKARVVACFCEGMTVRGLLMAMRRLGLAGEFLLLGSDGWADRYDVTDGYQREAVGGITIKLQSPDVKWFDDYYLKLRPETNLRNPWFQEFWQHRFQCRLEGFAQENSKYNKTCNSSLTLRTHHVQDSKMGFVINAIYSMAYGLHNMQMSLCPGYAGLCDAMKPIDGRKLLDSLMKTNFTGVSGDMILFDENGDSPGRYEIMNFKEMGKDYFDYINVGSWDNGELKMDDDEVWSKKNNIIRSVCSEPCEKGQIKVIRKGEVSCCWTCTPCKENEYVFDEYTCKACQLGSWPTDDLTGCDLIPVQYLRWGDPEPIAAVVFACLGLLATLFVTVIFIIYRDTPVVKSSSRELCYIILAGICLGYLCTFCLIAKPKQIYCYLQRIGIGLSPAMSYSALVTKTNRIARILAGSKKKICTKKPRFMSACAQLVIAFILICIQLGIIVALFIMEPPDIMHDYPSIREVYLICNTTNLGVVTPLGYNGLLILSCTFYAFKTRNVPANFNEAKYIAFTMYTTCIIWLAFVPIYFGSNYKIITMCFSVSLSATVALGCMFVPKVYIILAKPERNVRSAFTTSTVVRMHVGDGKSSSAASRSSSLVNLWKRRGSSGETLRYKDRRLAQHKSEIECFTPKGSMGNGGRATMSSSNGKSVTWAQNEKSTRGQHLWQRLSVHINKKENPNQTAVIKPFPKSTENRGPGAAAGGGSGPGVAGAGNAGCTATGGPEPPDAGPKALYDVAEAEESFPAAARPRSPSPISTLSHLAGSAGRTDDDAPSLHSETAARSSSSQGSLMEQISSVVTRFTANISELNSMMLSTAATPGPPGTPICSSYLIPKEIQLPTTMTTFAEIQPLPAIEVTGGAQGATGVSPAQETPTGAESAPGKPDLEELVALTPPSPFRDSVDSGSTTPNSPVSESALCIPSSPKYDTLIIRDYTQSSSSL
Experiment: [3H]-MPEP displacement binding assay, HEK-293 cell membranes expressing rat mGluR5
Conditions: for pKi: read-out: Median Ki
Protocol: MGluR5 expressing HEK-293 cells were scraped off a plate, transferred to centrifuge tubes and washed twice by centrifugation (2000 rpm for 10 minutes, at 4° C.) in buffer (50 mM Tris pH 7.5). The resulting pellets were aliquoted and stored at minus 80° C. On the day of assay, the cells were thawed on ice and re-suspended in buffer. The binding assay was performed in a 96 well microtiter plate in a total volume of […]. Non-specific binding was determined in the presence of 10 μM MPEP. The binding reaction included a final radioligand [^3H]-MPEP concentration of 4 nM and 12-25 μg membrane protein per well. Following a 60 minute incubation at room temperature, the reaction was terminated by the addition of ice cold buffer and rapid filtration through a GF/B filter that had been presoaked for 30 minutes in 0.5% PEI. Compounds were initially tested in a single point assay to determine percent inhibition at 10 μM.
Percent inhibition and Ki values were generated by GraphPad Prism and Excel Fit. IC50 values were calculated using GraphPad by fitting to a 1 or 2 site-binding model.
where [L] is the concentration of free radioligand and Kd is the dissociation constant of radioligand for the receptor.

[1] = [3H]-MPEP displacement, rat mGluR5
[2] = 1 h, single point, @ 10 μm compound, Table 1A, read-out: PCT INHIB (%) @ 10 μm
[3] = @ 10 μM compound, Biological Activity, Table 2A, read-out: PCT INHIB (%) @ 10 μM
[4] = [3H]-MPEP displacement, rat mGluR5 membranes

pKi [1]: 6.15
Molecule: COc1ccc(C(=O)N2CCCN(c3ncc(C(F)(F)F)cc3Cl)CC2)cc1C#Cc1ccccn1 [Compound 212, 1-[3-chloro-5-(trifluoromethyl)pyridin-2-yl]-4-[4-methoxy-3-(pyridin-2-ylethynyl)benzoyl]-1,4-diazepane]

pKi [1]: 7.00
Molecule: COc1ccc(C(=O)N2CCN(c3cc(Cl)nc(SC)n3)CC2)cc1C#Cc1ccccn1 [Compound 294, 4-chloro-6-{4-[4-methoxy-3-(pyridin-2-ylethynyl)benzoyl]piperazin-1-yl}-2-(methylthio)pyrimidine]

pKi: 6.92
Molecule: Cc1ccc(C(=O)N2CCN(c3cnccn3)CC2)cc1C#Cc1cccc(F)c1 [Compound 62, 2-(4-{3-[(3-fluorophenyl)ethynyl]-4-methylbenzoyl}piperazin-1-yl)pyrazine]

pKi [1]: 6.13
Molecule: Cc1ccc(C(=O)N2CCN(c3ncc(Cl)cc3Cl)CC2)cc1C#Cc1ccccn1 [Compound 310, 1-(3,5-dichloropyridin-2-yl)-4-[4-methyl-3-(pyridin-2-ylethynyl)benzoyl]piperazine]

pKi [1]: 6.64
Molecule: COc1ccc(C(=O)N2CCN(c3ncccn3)CC2)cc1C#Cc1cccc(OC(F)F)c1 [Compound 364, 2-[4-(3-{[3-(difluoromethoxy)phenyl]ethynyl}-4-methoxybenzoyl)piperazin-1-yl] pyrimidine]

inhibition at 10 µM (single point, @ 10 μM compound, Table 6, read-out: PCT INHIB (%) @ 10 μM): 0%
Molecule: C(#Cc1cccc(CN2CCN(c3ccccn3)CC2)c1)Cc1ccccc1 [Compound 179, 1-[3-(3-phenylprop-1-yn-1-yl)benzyl]-4-pyridin-2-ylpiperazine]

inhibition at 10 µM [2]: 84%
pKi: 7.37
Molecule: COc1ccc(C(=O)N2CCN(c3ccccn3)CC2)cc1C#CCc1ccccc1 [Compound 16, 1-[4-methoxy-3-(3-phenylprop-1-yn-1-yl)benzoyl]-4-pyridin-2-ylpiperazine]

inhibition at 10 µM [3]: 54%
Molecule: O=C(c1ccnc(C#Cc2ccccc2)c1)N1CCN(c2cccc(C(F)(F)F)n2)CC1 [Compound 126, 1-[2-(phenylethynyl)isonicotinoyl]-4-[6-(trifluoromethyl)pyridin-2-yl]piperazine]

inhibition at 10 µM [3]: 90%
pKi (Biological Activity, Table 2A): 7.20
Molecule: COc1ccc(C(=O)N2CCN(c3ncccn3)CC2)cc1C#Cc1ccccc1 [Compound 112, 2-{4-[4-methoxy-3-(phenylethynyl)benzoyl]piperazin-1-yl}pyrimidine]

inhibition at 10 µM [2]: 83%
pKi: 7.24
Molecule: Cc1cccc(C#Cc2cc(C(=O)N3CCN(c4ccccn4)CC3)ccc2C)c1 [Compound 39, 1-{4-methyl-3-[(3-methylphenyl)ethynyl]benzoyl}-4-pyridin-2-ylpiperazine]

pKi ([3H]-MPEP 4 nM, Table 4A): < 5.00
Molecule: O=C(c1cccc(COc2ccccc2)c1)N1CCN(c2ccccn2)CC1 [Compound 171, 1-[3-(phenoxymethyl)benzoyl]-4-pyridin-2-ylpiperazine]

inhibition at 10 µM [2]: 68%
pKi: 6.00
Molecule: COc1ccc(C(=O)N2CCN(c3ccccn3)CC2)cc1C#Cc1ccncc1 [Compound 45, 1-[4-methoxy-3-(pyridin-4-ylethynyl)benzoyl]-4-pyridin-2-ylpiperazine]

pKi ([3H]-MPEP 4 nM, Table 4A): < 5.00
Molecule: COc1cccc(OCc2cccc(C(=O)N3CCN(c4ccccn4)CC3)c2)c1 [Compound 167, 1-{3-[(3-methoxyphenoxy)methyl]benzoyl}-4-pyridin-2-ylpiperazine]

inhibition at 10 µM [2]: 85%
pKi: 6.13
Molecule: Cc1ccc(C(=O)N2CCN(c3cnccn3)CC2)cc1C#Cc1cccc(C(F)(F)F)c1 [Compound 60, 2-[4-(4-methyl-3-{[3-(trifluoromethyl)phenyl]ethynyl}benzoyl)piperazin-1-yl]pyrazine]

pKi [4]: 6.45
Molecule: Cc1cccc(N2CCN(C(=O)c3ccc(C(F)(F)F)c(C#Cc4ccccn4)c3)CC2)n1 [Compound 380, 1-(6-methylpyridin-2-yl)-4-{[3-(pyridin-2-ylethynyl)-4-(trifluoromethyl)phenyl]carbonyl}piperazine]

pKi [1]: 7.74
Molecule: COc1ccc(C(=O)N2CCN(c3cc(Cl)cc(Cl)c3)CC2)cc1C#Cc1ccccn1 [Compound 271, 1-(3,5-dichlorophenyl)-4-[4-methoxy-3-(pyridin-2-ylethynyl)benzoyl]piperazine]

pKi [1]: 5.64
Molecule: COc1ccc(C(=O)N2CCN(c3nnc(-c4ncc([N+](=O)[O-])n4C)s3)CC2)cc1C#Cc1ccccn1 [Compound 283, 1-[4-methoxy-3-(pyridin-2-ylethynyl)benzoyl]-4-[5-(1-methyl-5-nitro-1H-imidazol-2-yl)-1,3,4-thiadiazol-2-yl]piperazine]

pIC50 ([3H]-MPEP displacement, rat mGluR5, no Ki given, read-out: IC50 (printed in the Median Ki column instead of a Ki)): < 5.00
Molecule: COc1ccc(C(=O)N2CCN(c3ncccc3Cl)CC2)cc1C#Cc1cccc(OC(F)(F)F)c1 [Compound 344, 1-(3-chloropyridin-2-yl)-4-(4-methoxy-3-{[3-(trifluoromethoxy)phenyl]ethynyl}benzoyl)piperazine]

pKi ([3H]-MPEP 4 nM, Table 4A): 5.76
Molecule: Cc1cccc(OCc2cccc(C(=O)N3CCN(c4ccccn4)CC3)c2)c1 [Compound 164, 1-{3-[(3-methylphenoxy)methyl]benzoyl}-4-pyridin-2-ylpiperazine]

pKi [4]: 6.92
Molecule: O=C(c1ccc(Cl)c(C#Cc2ccccn2)c1)N1CCN(c2cccc(C(F)(F)F)c2)CC1 [Compound 392, 1-[4-chloro-3-(pyridin-2-ylethynyl)benzoyl]-4-[3-(trifluoromethyl)phenyl]piperazine]

pKi: 7.31
Molecule: Cc1ccc(C(=O)N2CCN(c3cnccn3)CC2)cc1C#Cc1cccc(Cl)c1 [Compound 67, 2-(4-{3-[(3-chlorophenyl)ethynyl]-4-methylbenzoyl}piperazin-1-yl)pyrazine]

inhibition at 10 µM [3]: 24%
Molecule: CSc1ccccc1N1CCN(C(=O)c2cccc(C#Cc3ccccc3)c2)CC1 [Compound 80, 1-[2-(methylthio)phenyl]-4-[3-(phenylethynyl)benzoyl]piperazine]

pKi [1]: 6.70
Molecule: O=C(c1ccc(OCC2CC2)c(C#Cc2ccccn2)c1)N1CCN(c2ccccn2)CC1 [Compound 323, 1-{[4-(cyclopropylmethoxy)-3-(pyridin-2-ylethynyl)phenyl]carbonyl}-4-pyridin-2-ylpiperazine]

Molecule: 1-(2-chlorobenzyl)-4-[4-methoxy-3-(pyridin-2-ylethynyl)benzoyl]piperazin-2-one [Compound 332]
pKi [1]: 7.49

inhibition at 10 µM [3]: 85%
Molecule: O=C(c1cccc(C#Cc2ccccc2)c1)N1CCN(c2cnccn2)CC1 [Compound 86, 2-{4-[3-(phenylethynyl)benzoyl]piperazin-1-yl}pyrazine]

inhibition at 10 µM [3]: 16%
Molecule: Cc1cnc(C)c(N2CCN(C(=O)c3cccc(C#Cc4ccccn4)c3)CC2)n1 [Compound 103, 2,5-dimethyl-3-{4-[3-(pyridin-2-ylethynyl)benzoyl]piperazin-1-yl}pyrazine]

inhibition at 10 µM [2]: 97%
pKi: 8.22
Molecule: COc1ccc(C(=O)N2CCN(c3ccccn3)CC2)cc1C#Cc1cccc(Cl)c1 [Compound 19, 1-{3-[(3-chlorophenyl)ethynyl]-4-methoxybenzoyl}-4-pyridin-2-ylpiperazine]

inhibition at 10 µM [2]: 0%
Molecule: O=C(c1cccc(C#CC2(O)CCCCC2)c1)N1CCN(c2ccccn2)CC1 [Compound 12, 1-({3-[(4-pyridin-2-ylpiperazin-1-yl)carbonyl]phenyl}ethynyl)cyclohexanol]

pKi [1]: 6.42
Molecule: COc1ccc(C(=O)N2CCN(S(=O)(=O)c3ccc(-n4cnnn4)cc3)CC2)cc1C#Cc1ccccn1 [Compound 284, 1-[4-methoxy-3-(pyridin-2-ylethynyl)benzoyl]-4-{[4-(1H-tetrazol-1-yl)phenyl]sulfonyl}piperazine]
